Measured values: patent publication US9815883B2, “Inhibiting peptides derived from TREM-like transcript 1 (TLT-1) and uses thereof” (Institut National de la Sante et de la Recherche Medicale …, priority 2010, dated 2017)

Key:
male Balb/c mice [1] = assay: Caecal ligation and puncture (CLP) polymicrobial sepsis model; type: in vivo, mouse; conditions: heading only; evaluation without results
Description: Adult male Balb/c mice (20-23 g) were subjected to caecal ligation and puncture under isoflurane anaesthesia and were randomly grouped (n=5-10 per group) to receive a single LR17 (100 μg in 0.2 mL NaCl 0.9%), scrambled-LR17 ([…] in 0.2 mL NaCl 0.9%), or 0.2 mL NaCl 0.9% i.p. injection. After 24 hours, animals were killed under anaesthesia. Results are mean±SD. p values are *p<0.05, **p<0.01, ***p<0.001 compared with control animals.
(A-B) Adult male Balb/c mice (20-23 g) were subjected to caecal ligation and puncture under isoflurane anaesthesia and were randomly grouped (n=25-40 per group) to receive a LR17, scrambled-LR17, or 0.2 mL NaCl 0.9% i.p. injection at indicated times. Survival was monitored over 1 wk and analyzed by Log Rank test.
Male Balb/c mice (4-6 weeks) were anesthetized with isoflurane. The cecum was exposed through a 1.0 cm abdominal midline incision and subjected to a ligation of the distal half followed by one puncture with a G21 needle. A small amount of stool was expelled from the puncture to ensure patency. The cecum was replaced into the peritoneal cavity and the abdominal incision closed in two layers. After surgery, all mice were injected s.c. with 0.5 mL of 0.9% NaCl solution for fluid resuscitation. The animals were randomly grouped and treated LR17 or LR17-scrambled as control in 250 μL 0.9% NaCl solution and administered i.p. In order to determine the effect of various doses of LR17 at different times, mice were treated with 50, 100 or 200 μg of LR17 at H1 after surgery, or with 3 injections of 100 μg at 2, 6 and 24 hours or with 100 μg in one injection at 24 hours after CLP and then monitored for survival. Five additional animals per group were killed under anaesthesia at 24 h after CLP for the determination of bacterial count and cytokines levels. Peritoneal lavage fluid was obtained using 2 mL RPMI 1640 (EuroBio), and blood was collected by cardiac puncture. Concentrations of plasma cytokines were determined by ELISA (R&Dsystems). For the assessment of bacterial counts, blood and crushed spleen were plated in serial log dilutions on tryptic soy supplemented with 5% sheep blood agar plates. After plating, tryptic soy agar plates were incubated at 37° C. aerobically for 24 h and anaerobically for 48 h. Results are expressed as CFU per ml of blood or per gram of spleen.

TREM-1 ligand (agonist) = assay: Immunoblot revealed by mouse anti-TREM-1 mAb (TREM-1 agonist); type: binding; conditions: FIG. 1A
Description: To determine whether sTLT-1 may specifically bind to the TREM-1 ligand and thus interfere with the TREM-1/TREM-1 ligand interaction, we used a specific TREM-1 agonist known to bind and activate TREM-1, mimicking TREM-1 engagement by its ligand.

male Balb/c mice [2] = assay: Caecal ligation and puncture (CLP) polymicrobial sepsis model; type: in vivo, mouse; conditions: LR12 in septic mice
human neutrophils = assay: Neutrophil phagocytosis and oxidative burst (Phagotest, Bursttest); type: cell-based
Description: Data (mean±SD) are representative of 6 different experiments.
The quantitative determination of neutrophil phagocytosis and oxidative burst was performed by flow cytometry using the Phagotest and the Bursttest (Orpegen Pharma, Heidelberg, Germany) following the manufacturers' recommendations. A FITC-labelled opsonized E. coli was used to determine the general phagocytic activity (ingestion of one or more bacteria per cell) and the individual cellular phagocytic activity (number of bacteria per cell). For evaluation of oxidative burst activity, unlabeled opsonized E. coli, fMLP, PMA LPS and activated- or non-activated-platelets (30:1) were used as stimulants and DCFDA as a fluoregenic substrate (Invitrogen) accordingly with manufacturers' instructions.

[3] = tested on: TREM-1 ligand expressed on resting or thrombin-activated human platelets; assay: Flow cytometry binding of FITC-labelled peptides to human platelets; conditions: competition with unlabelled substance
Description: (B) Flow cytometry analysis of FITC-labelled LR17 (1 or 5 μg/mL) binding to TREM-1 ligand expressed on resting or thrombin-activated (5 UI/mL) human platelets is reversed by co-incubation with unlabelled LR17, sTLT-1 or LP17, a TREM-1 derived peptide.
Acid Citrate Dextrose blood samples were centrifuged (100 g, 10 min) to obtain Platelet-Rich Plasma. PRP was then centrifuged (550 g, 10 min) over a 36% (wt/vol) BSA gradient and platelets collected from the interphase before being washed in Tyrode's salts buffer (Sigma-Aldrich) supplemented with 5 mM EGTA. For activation, platelets were incubated for 30 minutes with 5 U/mL thrombin (Sigma-Aldrich) or 1 μg/mL E. Coli LPS (0111:B4, Sigma-Aldrich) at 37° C. and subsequently fixed with 2% (wt/vol) paraphormaldehyde (PFA, Sigma-Aldrich). Residual PFA was removed by two additional washing steps in Tyrode buffer. Activation was assessed by anti-CD62P (Beckman Coulter).
Isolated cells (neutrophils, monocytes or platelets) were blocked for aspecific binding with 10% human Ig (Sigma-Aldrich) for 1 hour on ice. Cells were incubated with recombinant soluble FITC-labelled TLT-1-peptides, FITC-labelled LP17 (or corresponding FITC-labelled scrambled peptides), PE-labelled anti-TREM-1 mAb (R&Dsystems), CD62P-FITC, CD66b-PE, CD45-PE, CD14-FITC (all from Beckman Coulter)

## EDAGEY (listed as Homo sapiens) [LR6-2, 6 amino-acids derived from LR17]
Male Balb/c mice [1]
  protection against polymicrobial sepsis: Protect Mice Against Polymicrobial Sepsis

## GAEREVCMDEYGALQDG (listed as Homo sapiens) [LR17-scrambled, control peptide, reference compound]
TREM-1 ligand (agonist)
  binding to the TREM-1 ligand (TREM-1 agonist, anti-TREM-1 mAb): not

## GEYGCM (listed as Homo sapiens) [LR6-3, 6 amino-acids derived from LR17]
Male Balb/c mice [1]
  protection against polymicrobial sepsis: Protect Mice Against Polymicrobial Sepsis

## LQEEDA (listed as Homo sapiens) [LR6-1, 6 amino-acids derived from LR17]
Male Balb/c mice [1]
  protection against polymicrobial sepsis: Protect Mice Against Polymicrobial Sepsis

## LQEEDAGEYGCM (listed as Homo sapiens) [LR12, N-terminal 12 amino-acids from LR17]
Male Balb/c mice [2]; FIG. 7c
  coagulation disorders (platelet count): significant protection
Male Balb/c mice [2]; FIG. 7g
  survival rate: improved survival rate
Male Balb/c mice [2]; FIG. 7d
  organ dysfunction (lung histopathology): significant protection
Male Balb/c mice [2]; FIGS. 7a and b
  systemic, broncho-alveolar and organ inflammation: significant protection

B1: sTLT-1: soluble TLT-1 (TREM-like transcript 1), recombinant (protein)
chain: QGIVGSLPEVLQAPVGSSILVQCHYRLQDVKAQKVWCRFLPEGCQPLVSSAVDRRAPAGRRTFLTDLGGGLLQVEMVTLQEEDAGEYGCMVDGARGPQILHRVSLNILPPEEEEETHKIGSLAENAFSDPAGSANPLEPSQDEKSIP
TREM-1 ligand (agonist)
  binding to the TREM-1 ligand (TREM-1 agonist, anti-TREM-1 mAb): able to bind the TREM-1 ligand
Human neutrophils; E. coli
  neutrophils' phagocytic properties: did not alter
Human neutrophils; not shown
  PMA- or fMLP-induced oxidative burst: no action
[3]
  effect of co-incubation on FITC-labelled LP17 binding to platelets: decreased
  effect of co-incubation on FITC-labelled LR17 binding to platelets: reversed
